Assay results from patent US12643879B2, “Functionalized heterocyclic compounds as modulators of stimulator of interferon genes (STING)” (RYVU THERAPEUTICS S.A., priority 2019, dated 2026).
Structures can show the parent of a compound that is named as a salt. Where two headings read alike, the source gives them in different places.

Tests used:
[1] = system: NF-κB pathway in THP-1 dual cells; test: THP-1 Dual reporter assay, NF-κB pathway (SEAP); format: cell-based; conditions: Homo sapiens, THP1-Dual, read-out: THP1 Dual EC50 (μM) NFkB
Method: (§1) Compounds of the present invention were tested for their activity using THP-1 dual cells (Invivogen, cat no. thpd-nfis) allowing for simultaneous study of NF-κB pathway and the interferon regulatory factor (IRF) pathway. THP-1 dual cells contain luciferase reporter gene under the control of an ISG54 (interferon-stimulated gene) minimal promoter in conjunction with five interferon-stimulated response elements and a secreted embryonic alkaline phosphatase reporter gene under the control an IFN (interferon)-β minimal promoter fused to five copies of the NF-κB consensus transcriptional response element with three copies of the c-Rel binding site. Following 18 h of stimulation with STING agonist, medium was collected and transferred onto fresh cell culture plate. To verify activity of the IRF pathway, luminescence activity was measured with standard laboratory plate reader immediately after addition 10 μl of the medium to 40 or 50 μl of luminescence reagent (Invivogen, cat. No. rep-qlc2). To verify activity of NF-κB pathway, 10 or 20 μl of the medium was mixed with 80 μl of a detection medium (Invivogen, cat. No. rep-qb2) and incubated for 1 or 2 hours at 37° C. in a humidified atmosphere containing 5% CO2. Next, absorbance at 630 or 655 nm was recorded using standard laboratory plate reader.

[2] = system: interferon regulatory factor (IRF) pathway in THP-1 dual cells; test: THP-1 Dual reporter assay, IRF pathway (luciferase); format: cell-based; conditions: Homo sapiens, THP1-Dual, read-out: THP1 Dual EC50 (μM) IRF
Method: as §1

[3] = 18 h stimulation, absorbance at 630 or 655 nm

| Structure (SMILES) | EC50 [1, 3] [µM] | EC50 ([2]; 18 h stimulation, luminescence) [µM] | EC50 ([1]; 18 h) [µM] | EC50 ([2]; 18 h) [µM] |
| --- | --- | --- | --- | --- |
| Cc1cc(CN(Cc2c[nH]c3ccccc3c2=O)[C@H]2CCCN(c3ccc(N)nc3)C2)ccn1 [Example 38, 3-({[(3S)-1-(6-aminopyridin-3-yl)piperidin-3-yl][(2-methylpyridin-4-yl)methyl]amino}methyl)-1,4-dihydroquinolin-4-one] | < 1 | < 1 | – | – |
| Cc1ccc(N2CCC[C@H](N(Cc3ccnc(C)c3)Cc3cn(C4CC4)c4cc(N5CC[C@H](O)C5)c(F)cc4c3=O)C2)cn1 [Example 39, 1-cyclopropyl-6-fluoro-7-[(3S)-3-hydroxypyrrolidin-1-yl]-3-({[(3S)-1-(6-methylpyridin-3-yl)piperidin-3-yl][(2-methylpyridin-4-yl)methyl]amino}methyl)-1,4-dihydroquinolin-4-one hydrochloride] | < 1 | < 1 | – | – |
| Cc1cc(CN(Cc2cn(C)c3ccccc3c2=O)[C@H]2CCCN(c3ccc(CO)nc3)C2)ccn1 [Example 40, 3-({[(3S)-1-[6-(hydroxymethyl)pyridin-3-yl]piperidin-3-yl][(2-methylpyridin-4-yl)methyl]amino}methyl)-1-methyl-1,4-dihydroquinolin-4-one] | 1 to 10 | 1 to 10 | – | – |
| Cc1ccc(N2CCC[C@H](N(Cc3ccnc(C)c3)Cc3cn(CCO)c4ccccc4c3=O)C2)cn1 [Example 41, 1-(2-hydroxyethyl)-3-({[(3S)-1-(6-methylpyridin-3-yl)piperidin-3-yl][(2-methylpyridin-4-yl)methyl]amino}methyl)-1,4-dihydroquinolin-4-one] | 1 to 10 | 1 to 10 | – | – |
| Cc1ccc(N2CCC[C@H](N(Cc3ccnc(C)c3)Cc3cn(C(C)C)c4nc(N5CC[C@@H](O)C5)c(F)cc4c3=O)C2)cn1 [Example 42, 6-fluoro-7-[(3R)-3-hydroxypyrrolidin-1-yl]-3-({[(3S)-1-(6-methylpyridin-3-yl)piperidin-3-yl][(2-methylpyridin-4-yl)methyl]amino}methyl)-1-(propan-2-yl)-1,4-dihydro-1,8-naphthyridin-4-one] | – | – | < 1 | < 1 |
| Cc1cc(CN(Cc2cn(C)c3ccccc3c2=O)[C@H]2CCCN(c3ccc(CCO)nc3)C2)ccn1 [Example 43, 3-({[(3S)-1-[6-(2-hydroxyethyl)pyridin-3-yl]piperidin-3-yl][(2-methylpyridin-4-yl)methyl]amino}methyl)-1-methyl-1,4-dihydroquinolin-4-one] | – | – | 1 to 10 | 1 to 10 |
| Cc1cc(CN(Cc2cn(C)c3ccccc3c2=O)[C@H]2CCCN(c3cncc(CO)c3)C2)ccn1 [Example 44] | – | – | > 10 | > 10 |

Second part, led by results:

| EC50 [1, 3] [µM] | EC50 ([2]; 18 h stimulation, luminescence) [µM] | Structure (SMILES) | EC50 ([1]; 18 h) [µM] | EC50 ([2]; 18 h) [µM] |
| --- | --- | --- | --- | --- |
| 1 to 10 | 1 to 10 | Cc1ccc(N2CCC[C@H](N(Cc3ccnc(C)c3)Cc3cn(C4CC4)c4cc(OCCN(C)C(=O)CCOCCOCCOCCC(=O)O)c(F)cc4c3=O)C2)cn1 [Example 11G, 3-[2-(2-{2-[(2-{[1-cyclopropyl-6-fluoro-3-({[(3S)-1-(6-methylpyridin-3-yl)piperidin-3-yl][(2-methylpyridin-4-yl)methyl]amino}methyl)-4-oxo-1,4-dihydroquinolin-7-yl]oxy}ethyl)(methyl)carbamoyl]ethoxy}ethoxy)ethoxy]propanoic acid formate] | – | – |
| > 10 | > 10 | Cc1ccc(N2CCC[C@H](N(Cc3ccnc(C)c3)Cc3cn(C4CC4)c4cc(OCCN(C)C(=O)OCc5ccc(NC(=O)[C@H](CCCNC(N)=O)NC(=O)[C@@H](NC(=O)CCOCCOCCOCCN=[N+]=[N-])C(C)C)cc5)c(F)cc4c3=O)C2)cn1 [Example 11H, {4-[(2S)-2-[(2S)-2-(3-{2-[2-(2-azidoethoxy)ethoxy]ethoxy}propanamido)-3-methyl-butanamido]-5-(carbamoylamino)pentanamido]phenyl}methyl N-(2-{[1-cyclopropyl-6-fluoro-3-({[(3S)-1-(6-methylpyridin-3-yl)piperidin-3-yl][(2-methylpyridin-4-yl)methyl]amino}methyl)-4-oxo-1,4-dihydroquinolin-7-yl]oxy}ethyl)-N-methylcarbamate] | – | – |
| > 10 | 1 to 10 | Cc1ccc(N2CCC[C@H](N(Cc3ccnc(C)c3)Cc3cn(C4CC4)c4cc(N5CC[C@@H](NC(=O)OCc6ccc(NC(=O)[C@H](CCCNC(N)=O)NC(=O)[C@@H](NC(=O)CCOCCOCCOCCN=[N+]=[N-])C(C)C)cc6)C5)c(F)cc4c3=O)C2)cn1 [Example 12A, {4-[(2S)-2-[(2S)-2-(3-{2-[2-(2-azidoethoxy)ethoxy]ethoxy}propanamido)-3-methyl-butanamido]-5-(carbamoylamino)pentanamido]phenyl}methyl N-[(3R)-1-[1-cyclopropyl-6-fluoro-3-({[(3S)-1-(6-methylpyridin-3-yl)piperidin-3-yl][(2-methylpyridin-4-yl)methyl]amino}methyl)-4-oxo-1,4-dihydroquinolin-7-yl]pyrrolidin-3-yl]carbamate] | – | – |
| 1 to 10 | 1 to 10 | Cc1ccc(N2CCC[C@H](N(Cc3ccnc(C)c3)Cc3cn(C4CC4)c4cc(N5CC[C@H](CNC(=O)CCOCCOCCOCCOCCN)C5)c(F)cc4c3=O)C2)cn1 [Example 15A, 1-amino-N-{[(3R)-1-[1-cyclopropyl-6-fluoro-3-({[(3S)-1-(6-methylpyridin-3-yl)piperidin-3-yl][(2-methylpyridin-4-yl)methyl]amino}methyl)-4-oxo-1,4-dihydroquinolin-7-yl]pyrrolidin-3-yl]methyl}-3,6,9,12-tetraoxapentadecan-15-amide] | – | – |
| 1 to 10 | 1 to 10 | Cc1ccc(N2CCC[C@H](N(Cc3ccnc(C)c3)Cc3cn(C4CC4)c4cc(N5CCC(N(C)C(=O)OCc6ccc(NC(=O)[C@H](CCCNC(N)=O)NC(=O)[C@@H](NC(=O)CCOCCOCCOCCN=[N+]=[N-])C(C)C)cc6)CC5)c(F)cc4c3=O)C2)cn1 [Example 19A] | – | – |
| < 1 | < 1 | C#CCOCCOCCOCCOCCOCCC(=O)O[C@H]1CCCN(c2cc3c(cc2F)c(=O)c(CN(Cc2ccnc(C)c2)[C@H]2CCCN(c4ccc(C)nc4)C2)cn3C2CC2)C1 [Example 31A, (3S)-1-[1-cyclopropyl-6-fluoro-3-({[(3S)-1-(6-methylpyridin-3-yl)piperidin-3-yl][(2-methylpyridin-4-yl)methyl]amino}methyl)-4-oxo-1,4-dihydroquinolin-7-yl]piperidin-3-yl 4,7,10,13,16-pentaoxanonadec-18-ynoate] | – | – |
| < 1 | < 1 | C#CCOCCOCCOCCOCCOCCC(=O)Nc1ccc(CNC(=O)O[C@H]2CCCN(c3cc4c(cc3F)c(=O)c(CN(Cc3ccnc(C)c3)[C@H]3CCCN(c5ccc(C)nc5)C3)cn4C3CC3)C2)cc1 [Example 31B, (3S)-1-[1-cyclopropyl-6-fluoro-3-({[(3S)-1-(6-methylpyridin-3-yl)piperidin-3-yl][(2-methylpyridin-4-yl)methyl]amino}methyl)-4-oxo-1,4-dihydroquinolin-7-yl]piperidin-3-yl N-{[4-(4,7,10,13,16-pentaoxanonadec-18-ynamido)phenyl]methyl}carbamate] | – | – |
| < 1 | < 1 | C#CCOCCOCCOCCOCCOCCC(=O)OCCOc1cc2c(cc1F)c(=O)c(CN(Cc1ccnc(C)c1)[C@H]1CCCN(c3ccc(C)nc3)C1)cn2C1CC1 [Example 47A, 2-{[1-cyclopropyl-6-fluoro-3-({[(3S)-1-(6-methylpyridin-3-yl)piperidin-3-yl][(2-methylpyridin-4-yl)methyl]amino}methyl)-4-oxo-1,4-dihydroquinolin-7-yl]oxy}ethyl 4,7,10,13,16-pentaoxanonadec-18-ynoate] | – | – |
